Laboratory results: PubChem BioAssay (NCI)
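1) Cells in 96-well plates. 2) Compound, 48 h, 5 concentrations. 3) Linear interpolation between surrounding doses. 4) Unreached endpoint = highest concentration. GI50: concentration for 50% inhibition of growth. TGI denotes the concentration required for complete inhibition of growth.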

What was measured:
Test in all cases: NCI-60 cell line screen, 48 h
UO-31 renal = tested on: UO-31 renal
HCC-2998 colon = tested on: HCC-2998 colon
MDA-N = tested on: MDA-N
EKVX NSCLC = tested on: EKVX NSCLC
PC-3 prostate = tested on: PC-3 prostate
MCF7 breast = tested on: MCF7 breast
MDA-MB-435 = tested on: MDA-MB-435
K-562 leukemia = tested on: K-562 leukemia
UACC-62 melanoma = tested on: UACC-62 melanoma
HCT-116 colon = tested on: HCT-116 colon
SK-MEL-28 melanoma = tested on: SK-MEL-28 melanoma
RPMI-8226 leukemia = tested on: RPMI-8226 leukemia
M14 melanoma = tested on: M14 melanoma
HL-60(TB) leukemia = tested on: HL-60(TB) leukemia
MALME-3M melanoma = tested on: MALME-3M melanoma

Q: What does the source list for `CC(=O)OCC1OC(OCCCCCCO)C(OC(C)=O)C(OC(C)=O)C1OC(C)=O` (stereo not given)?
A: TGI (UO-31 renal): > 100 µM; TGI (HCC-2998 colon): > 100 µM; TGI (MDA-N): > 100 µM; TGI (EKVX NSCLC): > 100 µM; TGI (PC-3 prostate): > 100 µM; TGI (MCF7 breast): > 100 µM; TGI (MDA-MB-435): > 100 µM; TGI (K-562 leukemia): > 100 µM; TGI (UACC-62 melanoma): > 100 µM; TGI (HCT-116 colon): > 100 µM; TGI (SK-MEL-28 melanoma): > 100 µM; TGI (RPMI-8226 leukemia): > 100 µM; TGI (M14 melanoma): > 100 µM; TGI (HL-60(TB) leukemia): > 100 µM

Q: How did the TGI (UO-31 renal) turn out when `CC1(C)C(=O)c2ccccc2OC1N1CCN(C2Oc3ccccc3C(=O)C2(C)C)CC1` (stereo not given) was run?
A: The TGI was > 100 µM.

Q: And the TGI (HCC-2998 colon)?
A: The TGI was > 100 µM.

Q: And the TGI (MDA-N)?
A: Its TGI is > 100 µM.

Q: What about the TGI (EKVX NSCLC) of the same molecule?
A: The TGI was > 100 µM.

Q: What about the TGI (PC-3 prostate) of the same molecule?
A: The TGI was > 100 µM.

Q: And the TGI (MCF7 breast)?
A: Its TGI is > 100 µM.

Q: And the TGI (MDA-MB-435)?
A: The TGI was > 100 µM.

Q: What about the TGI (K-562 leukemia) of the same molecule?
A: The TGI was > 100 µM.

Q: And the TGI (UACC-62 melanoma)?
A: Its TGI is > 100 µM.

Q: And the TGI (HCT-116 colon)?
A: Its TGI is > 100 µM.

Q: What about the TGI (SK-MEL-28 melanoma) of the same molecule?
A: The TGI was > 100 µM.

Q: And the TGI (RPMI-8226 leukemia)?
A: Its TGI is > 100 µM.

Q: And the TGI (M14 melanoma)?
A: The TGI was > 100 µM.

Q: What about the TGI (MALME-3M melanoma) of the same molecule?
A: The TGI was > 100 µM.

Q: What about the TGI (HL-60(TB) leukemia) of the same molecule?
A: The TGI was > 100 µM.

Q: Which TGI (UO-31 renal) does the source give for `Cc1cn(C2CC(N)C(C(=O)NCC(=O)O)O2)c(=O)[nH]c1=O` (stereo not given) here?
A: The TGI was > 100 µM.

Q: And the TGI (HCC-2998 colon)?
A: The TGI was > 100 µM.

Q: And the TGI (MDA-N)?
A: The TGI was > 100 µM.

Q: And the TGI (EKVX NSCLC)?
A: Its TGI is > 100 µM.

Q: What about the TGI (PC-3 prostate) of the same molecule?
A: The TGI was > 100 µM.

Q: And the TGI (MCF7 breast)?
A: The TGI was > 100 µM.

Q: What about the TGI (MDA-MB-435) of the same molecule?
A: Its TGI is > 100 µM.

Q: What about the TGI (K-562 leukemia) of the same molecule?
A: The TGI was > 100 µM.

Q: And the TGI (UACC-62 melanoma)?
A: The TGI was > 100 µM.

Q: What about the TGI (HCT-116 colon) of the same molecule?
A: Its TGI is > 100 µM.

Q: What about the TGI (SK-MEL-28 melanoma) of the same molecule?
A: The TGI was > 100 µM.

Q: What about the TGI (RPMI-8226 leukemia) of the same molecule?
A: Its TGI is > 100 µM.

Q: And the TGI (M14 melanoma)?
A: The TGI was > 100 µM.

Q: And the TGI (MALME-3M melanoma)?
A: Its TGI is > 100 µM.

Q: What about the TGI (HL-60(TB) leukemia) of the same molecule?
A: The TGI was > 100 µM.

Q: For `COc1ccc(-c2ccc(-c3ccc(C(=N)N)nc3)s2)cc1Cl`, which GI50 (UO-31 renal) is on record?
A: Its GI50 is 1.55 µM.

Q: And the TGI (UO-31 renal)?
A: Its TGI is 2.91 µM.

Q: What about the GI50 (PC-3 prostate) of the same molecule?
A: The GI50 was 1.78 µM.

Q: What about the TGI (PC-3 prostate) of the same molecule?
A: The TGI was 3.49 µM.

Q: What about the GI50 (MDA-MB-435) of the same molecule?
A: The GI50 was 1.73 µM.

Q: What about the TGI (MDA-MB-435) of the same molecule?
A: The TGI was 3.12 µM.

Q: And the GI50 (RPMI-8226 leukemia)?
A: Its GI50 is 2.25 µM.

Q: And the TGI (RPMI-8226 leukemia)?
A: The TGI was 4.9 µM.

Q: And the GI50 (MALME-3M melanoma)?
A: The GI50 was 1.78 µM.

Q: And the TGI (MALME-3M melanoma)?
A: The TGI was 3.32 µM.

Q: Which TGI (HCC-2998 colon) does the source give for `C=CCN1C(=O)/C(=C/c2ccco2)N=C1SC1OC(COC(C)=O)C(OC(C)=O)C(OC(C)=O)C1OC(C)=O` (stereo not given) here?
A: Its TGI is > 100 µM.

Q: What about the TGI (EKVX NSCLC) of the same molecule?
A: Its TGI is > 100 µM.

Q: What about the TGI (PC-3 prostate) of the same molecule?
A: The TGI was > 100 µM.

Q: What about the TGI (MCF7 breast) of the same molecule?
A: Its TGI is > 100 µM.

Q: And the TGI (MDA-MB-435)?
A: The TGI was > 100 µM.

Q: And the TGI (K-562 leukemia)?
A: Its TGI is > 100 µM.

Q: What about the TGI (UACC-62 melanoma) of the same molecule?
A: The TGI was > 100 µM.

Q: What about the TGI (SK-MEL-28 melanoma) of the same molecule?
A: Its TGI is > 100 µM.

Q: What about the TGI (RPMI-8226 leukemia) of the same molecule?
A: Its TGI is > 100 µM.

Q: What about the TGI (MALME-3M melanoma) of the same molecule?
A: The TGI was > 100 µM.

Q: What about the TGI (HL-60(TB) leukemia) of the same molecule?
A: Its TGI is 53.4 µM.
